Our source for the IC50 and Activity values is ChEMBL document CHEMBL1153708, “Synthesis and evaluation of a thio analogue of duocarmycin SA” (Bioorg Med Chem Lett, 2009).

For one test, the system named is L1210. As to the kind of experiment: Cytotoxicity against mouse L1210 cells. It is filed as functional, cell-based.
A further test concerns Nucleic Acid. The experiment in a line: Induction of w794 DNA alkylation at 10 uM after 24 hrs by PAGE. It is filed as nucleic-acid assay.

Activity calls are given as the source filed them. No cut-off for these calls is given here.

Take `COC(=O)c1cc2c(s1)C(=O)C=C1N(C(=O)c3cc4cc(OC)c(OC)c(OC)c4[nH]3)C[C@H]3C[C@]123`: in the test with L1210, the 50% inhibitory concentration (IC50) is 0.007 nM.
Still for that read-out and setting: then `COC(=O)c1cc2c([nH]1)C(=O)C=C1N(C(=O)OC(C)(C)C)C[C@@H]3C[C@@]123`, with 60 nM.
As for `COC(=O)c1cc2c([nH]1)C(=O)C=C1N(C(=O)c3cc4cc(OC)c(OC)c(OC)c4[nH]3)C[C@@H]3C[C@@]123`, the result in the test on Nucleic Acid was Active.
Still for that read-out and setting: the same measure for `COC(=O)c1cc2c([nH]1)C(=O)C=C1N(C(=O)c3cc4cc(OC)c(OC)c(OC)c4[nH]3)C[C@H]3C[C@]123`: “Active”.
In the case of `COC(=O)c1cc2c(s1)C(=O)C=C1N(C(=O)OC(C)(C)C)C[C@H]3C[C@]123`, in the test with L1210, it took 6 nM to reach half-maximal inhibition (IC50).
On to `COC(=O)c1cc2c(s1)C(=O)C=C1N(C(=O)OC(C)(C)C)C[C@@H]3C[C@@]123`, for which the half-maximal inhibitory concentration (IC50) in the test on L1210 came to 55 nM.
Compound `COC(=O)c1cc2c(s1)C(=O)C=C1N(C(=O)c3cc4cc(OC)c(OC)c(OC)c4[nH]3)C[C@@H]3C[C@@]123` came in with an IC50 with L1210 of 0.06 nM. In the test with Nucleic Acid, the result was Active.
